# Data published in US10899699B2, “Vinylogous phenethylamines as neurotransmitter releasers” (RESEARCH TRIANGLE INSTITUTE, priority 2016, dated 2021).
# Legend:
# human 5-HT2A receptor = target: T1, human 5-HT2A receptor (Homo sapiens, UniProt P28223); test: 5-HT2A calcium mobilization assay in HEK293 cells (agonist activity); format: cell-based
# T1 construct: expressed in transfected cells
# Description: (§1) BAT activity was measured using synaptosomes prepared from rat brain homogenates according to the protocol developed by Rothman and co-workers (Rothman, et al., Eur. J. Pharmacol. 2002, 447(1), 51). Compounds were first screened in uptake inhibition and release assays to determine the exact mode of drug action. Compounds active in both assays are releasers while compounds active only in the uptake inhibition assay are uptake inhibitors. Active compounds were then fully characterized by running 8-point concentration response curves in the assay corresponding to their mechanism of action. Substrate reversal experiments were conducted to validate substrate activity. The analogs were also tested for agonist activity at the serotonin-2 receptor subtypes (5-HT2A, 5-HT2B, 5-HT2C) using in vitro calcium mobilization assays in transfected HEK293 cells as previously described. These receptors are associated with the pharmacology of abused drugs, as 5-HT2A agonists are thought to be hallucinogenic while […] are associated with valvular heart disease and pulmonary hypertension; activity at these receptors would be considered off-target liabilities. On the other hand, agonists at 5-HT2C may be beneficial as potential pharmacotherapies for drug abuse and appetite suppression.
# (§2) HEK293 cells stably expressing the human 5-HT2A receptor were used. The day before the assay, cells were plated into 96-well black-walled assay plates at 40,000 cells/well in DMEM-HG supplemented with 10% fetal bovine serum, 100 units of penicillin and streptomycin, and 15 mM HEPES. The cells were incubated overnight at 37° C., 5% CO2. Prior to the assay, Calcium 5 dye (Molecular Devices) was reconstituted according to the manufacturer instructions. The reconstituted dye was diluted 1:40 in pre-warmed (37° C.) assay buffer (1×HBSS, 20 mM HEPES, 2.5 mM probenecid, pH 7.4 at 37° C.). Growth medium was removed and the cells were gently washed with 100 μL of pre-warmed (37° C.) assay buffer. The cells were incubated for 45 minutes at 37° C., 5% CO2 in 200 μL of the diluted Calcium 5 dye. Serial dilutions of the test compounds were prepared in 1% DMSO/assay buffer, aliquoted into 96-well polypropylene plates, and warmed to 37° C. After the dye-loading incubation period, the cells were pre-treated with 25 μL of 9% DMSO/assay buffer and incubated for 15 min at 37° C. After the pre-treatment incubation period, the plate was read with a FlexStation® II (Molecular Devices). Calcium-mediated changes in fluorescence were monitored every 1.52 seconds over a 60 second time period, with the FlexStation® II adding 25 μL of test compound dilutions at the 19 second time point (excitation at 485 nm, detection at 525 nm). Peak kinetic reduction (SoftMax, Molecular Devices) relative fluorescent units (RFU) were plotted against compound concentration. Data were fit to the appropriate three-parameter logistic curve to generate EC50 values (GraphPad Prism 6.0, GraphPad Software, Inc., San Diego, Calif.). 5-HT2B and 5-HT2C calcium mobilization assays were run in the same manner with stable 5-HT2B and 5-HT2C HEK293 cells except that 35,000 cells/well were used instead of 40,000 cells/well.
# 5-HT2B = target: T2, 5-HT2B (Homo sapiens, UniProt P41595); test: 5-HT2B calcium mobilization assay in HEK293 cells (agonist activity); format: cell-based
# T2 construct: expressed in transfected cells
# Description: as §1, §2
# 5-HT2C = target: T3, 5-HT2C (Homo sapiens, UniProt P28335); test: 5-HT2C calcium mobilization assay in HEK293 cells (agonist activity); format: cell-based
# T3 construct: expressed in transfected cells
# T3 sequence (P28335 33-458): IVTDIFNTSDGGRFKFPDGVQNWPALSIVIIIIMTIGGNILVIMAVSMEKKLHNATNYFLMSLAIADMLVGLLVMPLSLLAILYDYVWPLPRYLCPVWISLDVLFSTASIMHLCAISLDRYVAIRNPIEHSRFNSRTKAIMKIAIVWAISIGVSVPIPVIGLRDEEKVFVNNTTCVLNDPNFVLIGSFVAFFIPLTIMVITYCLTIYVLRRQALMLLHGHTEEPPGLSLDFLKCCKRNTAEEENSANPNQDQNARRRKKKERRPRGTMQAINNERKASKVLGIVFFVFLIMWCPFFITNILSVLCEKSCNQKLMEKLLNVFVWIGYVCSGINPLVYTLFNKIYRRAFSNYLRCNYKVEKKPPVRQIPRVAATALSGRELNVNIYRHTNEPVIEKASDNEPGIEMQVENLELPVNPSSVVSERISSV
# Description: as §1, §2
# [1] = rhesus monkeys, chronic treatment; progressive-ratio, choice, second-order schedules; cited from earlier work
# [2] = double-blind, placebo-controlled clinical trial; cited from earlier work
# [3] = rats; cited from earlier work
# [4] = abstinent cocaine-dependent patients; cited from earlier work
# [5] = calcium mobilization, agonist, HEK293
# T1 sequence (P28223 whole entry): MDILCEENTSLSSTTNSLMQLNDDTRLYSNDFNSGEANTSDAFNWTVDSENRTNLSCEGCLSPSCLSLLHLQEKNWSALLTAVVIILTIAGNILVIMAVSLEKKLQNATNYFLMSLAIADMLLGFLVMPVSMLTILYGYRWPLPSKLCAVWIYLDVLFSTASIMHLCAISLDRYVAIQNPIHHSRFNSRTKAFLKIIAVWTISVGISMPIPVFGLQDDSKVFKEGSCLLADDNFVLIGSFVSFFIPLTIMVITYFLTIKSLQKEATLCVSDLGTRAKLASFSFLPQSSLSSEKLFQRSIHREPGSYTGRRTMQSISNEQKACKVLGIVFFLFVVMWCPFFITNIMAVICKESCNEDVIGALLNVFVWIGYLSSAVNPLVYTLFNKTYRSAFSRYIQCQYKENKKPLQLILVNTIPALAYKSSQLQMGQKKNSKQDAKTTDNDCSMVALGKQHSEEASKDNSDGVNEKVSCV
# T2 sequence (P41595 whole entry): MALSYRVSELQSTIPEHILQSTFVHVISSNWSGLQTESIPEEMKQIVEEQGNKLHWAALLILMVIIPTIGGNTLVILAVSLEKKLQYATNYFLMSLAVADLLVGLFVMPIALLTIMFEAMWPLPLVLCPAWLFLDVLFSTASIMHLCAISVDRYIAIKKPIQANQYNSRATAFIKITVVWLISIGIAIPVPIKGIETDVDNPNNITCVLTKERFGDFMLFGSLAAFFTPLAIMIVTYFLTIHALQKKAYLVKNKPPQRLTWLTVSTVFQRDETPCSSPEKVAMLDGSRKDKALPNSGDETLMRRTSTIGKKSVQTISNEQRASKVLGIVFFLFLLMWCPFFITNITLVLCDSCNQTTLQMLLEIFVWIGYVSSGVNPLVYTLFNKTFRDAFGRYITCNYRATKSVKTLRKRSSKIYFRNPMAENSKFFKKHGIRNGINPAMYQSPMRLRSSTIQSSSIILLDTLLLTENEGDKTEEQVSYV
Compound,EC50 (human 5-HT2A receptor),"5-HT2A EC50, (nM ± SEM) (human 5-HT2A receptor; [5])",EC50 (5-HT2B),"5-HT2B EC50, (nM ± SEM) (5-HT2B; [5])",EC50 (5-HT2C),"5-HT2C EC50, (nM ± SEM) (5-HT2C; [5])",cocaine self-administration compared to food-maintained responding [1],cocaine use [2],cue-reinstated cocaine-seeking behavior [3],cocaine craving [4]
"C[C@H](N)Cc1ccccc1 [compound 1, S(+)-amphetamine, reference compound]",> 10 µM,inactive,> 10 µM,inactive,> 10 µM,inactive,selective dose-dependent decrease in cocaine self-administration,decrease in cocaine use,,
CCNC(C)Cc1cccc(C(F)(F)F)c1 (stereo not shown) [fenfluramine],,,,,,,,,dose-dependently attenuates cue-reinstated cocaine-seeking behavior,significantly reduces cocaine craving
